Assay [1] has as its system MFN1 and MFN2 expression in C2C12 cells. Nature of the assay: Western blot analysis of MFN1 and MFN2 expression in C2C12 cells stably expressing ALCAT1 or vector control, treated with H2O2. It is filed as cell-based. (In general: In western blotting, separated proteins are transferred to a membrane and probed.)
Experimental: FIG. 7G: Western blot analysis of MFN1 and MFN2 expression in C2C12 cells stably expressing vector, ALCAT1, or ALCAT1 but were pretreated various doses (0, 1M, and 5M) of diphenyliodonium (DPI), an NADPH oxidase inhibitor, prior to treatment with 1.5 mM of H2O2.
The C2C12-A1 cells and vector control were treated with increasing doses of H2O2 as used in FIG. 7E, followed by analysis of MFN2 expression by western blot analysis.
The test system of assay [2] is phosphorylation of Akt and Erk in H9c2 cells. Briefly: Western blot analysis of phosphorylation of Akt and Erk in H9c2 cardiac cells stimulated with insulin. Conditions: vector control H9c2 cells, indicated doses of insulin, FIG. 17A. It is filed as cell-based. The protocol:
FIGS. 17A-17B: H9c2 cardiac cells stably expressing ALCAT1 or vector control were stimulated with indicated doses of insulin (FIG. 17A) or with 100 nM of T3 for the indicated time (FIG. 17B), followed by analysis of phosphorylation of Akt, Erk, S6K1, and 4E-BP by western blot analysis using β-actin as an internal control. FIG. 17C: WT and KO mice were treated with vehicle or T4 for 28 days, followed by Western blot analysis of phosphorylation of Akt, GSK3α/β, and 4E-BP in cardiomyocytes by Western blot analysis using GAPDH as an internal control.
Oxidative Stress by ALCAT1 Regulates Akt-mTOR Signal Transduction Pathways in Cardiomyopathy: Hyperthyroidism leads to cardiomyopathy by stimulating protein synthesis in the cardiomyocytes. To identify molecular mechanisms underlying a role of ALCAT1 in hypertrophic growth, the effects of ALCAT1 overexpression and deficiency were analyzed on signal transduction pathways involved in cellular growth and proliferation, including phosphorylation of Akt, Erk, S6K, and 4E-BP1, in H9c2 cells and in mice with hyperthyroidism. Increased ROS levels lead to insulin resistance which plays a causative role in cardiac dysfunction. […] In support of the findings in H9c2 cells, short term treatment of mice with thyroid hormone stimulated cardiac Akt-mTOR phosphorylation in both ALCAT1 knockout mice and the WT mice (FIG. 20).

Turning to `c1ccc2c(c1)[I+]c1ccccc1-2` [DPI, diphenyleneiodonium], the “loss of MFN expression in response to H2O2” value in assay [1] (C2C12-A1 cells (stably expressing ALCAT1) pre-incubated with DPI (0, 1M, and 5M) prior to 1.5 mM H2O2, FIG. 7G) was “dose-dependently prevented the loss of MFN expression”. As to `OO` [H2O2, Hydrogen Peroxide], the “MFN1 and MFN2 expression” value in assay [1] (vector control C2C12 cells, increasing doses of H2O2, FIG. 7F) is “dose-dependently depleted MFN1 and MFN2 expression”. Turning to “insulin: hormone used to stimulate Akt and Erk phosphorylation in H9c2 cells”, the “phosphorylation of Akt and Erk” value in assay [2] is “dose-dependently stimulated phosphorylation of Akt and Erk”.

(Values after patent US10526418B2, “Modulators of ACYL-COA lysocardiolipin acyltransferase 1 (ALCAT1) and uses thereof” (priority 2012, dated 2020).)
